Assay results from patent US5716929A (Vertex Pharmaceuticals, Inc., priority 1995, dated 1998).
Square brackets hold non-standard residues; d marks the D form. Peptide text beside a SMILES is read from it. * marks the point of attachment. ξ: configuration not given here. Hyp = O=C(O)[C@@H]1C[C@@H](O)CN1; Tic = O=C(O)[C@@H]1Cc2ccccc2CN1; ξD = NC(CC(=O)O)C(=O)O; Allyl = C=CC*

These compounds were tested against T1, interleukin-1β converting enzyme (ICE) (Homo sapiens, UniProt P29466) (assay: Enzyme assay with UV-visible substrate (Succinyl-Tyr-Val-Ala-Asp-pNitroanilide)). Settings: Example 2 table.
T1 sequence (P29466 120-297 limits assumed): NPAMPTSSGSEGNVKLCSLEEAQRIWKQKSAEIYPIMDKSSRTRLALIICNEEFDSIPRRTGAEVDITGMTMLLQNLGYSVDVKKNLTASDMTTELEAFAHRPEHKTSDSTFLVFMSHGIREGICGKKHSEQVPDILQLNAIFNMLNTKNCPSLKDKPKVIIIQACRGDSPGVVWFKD
T1 sequence (P29466 317-404 limits assumed): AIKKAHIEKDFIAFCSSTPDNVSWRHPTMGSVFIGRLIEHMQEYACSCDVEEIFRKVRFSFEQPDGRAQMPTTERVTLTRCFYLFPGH
Assay type: biochemical
Protocol: 1. Enzyme assay with UV-visible substrate
This assay is run using an Succinyl-Tyr-Val-Ala-Asp-pNitroanilide substrate (SEQ ID NO: 1). Synthesis of analogous substrates is described by L. A. Reiter (Int. J. Peptide Protein Res. 43, 87-96 (1994)). The assay mixture contains: […]
The visible ICE assay is run in a 96-well microtiter plate. Buffer, ICE and DMSO (if inhibitor is present) are added to the wells in the order listed. The components are left to incubate at room temperature for 15 minutes starting at the time that all components are present in all wells. The microtiter plate reader is set to incubate at 37° C. After the 15 minute incubation, substrate is added directly to the wells and the reaction is monitored by following the release of the chromophore (pNA) at 405-603 nm at 37° C. for 20 minutes. A linear fit of the data is performed and the rate is calculated in mOD/min. DMSO is only present during experiments involving inhibitors, buffer is used to make up the volume to 100 μl in the other experiments.
For determination of enzyme inhibition constants (Ki) or the mode of inhibition (competitive, uncompetitive or noncompetitive), the rate data determined in the enzyme assays at varying inhibitor concentrations are computer-fit to standard enzyme kinetic equations (see I. H. Segel, Enzyme Kinetics, Wiley-Interscience, 1975).

Row | Ki | Compound
1 | 5500 nM | C[C@H](NC(=O)c1cnc(CCc2ccccc2)[nH]1)C(=O)N[C@H](C=O)CC(=O)O [Compound 33a, (3S)3-{N-[2-(2-Phenylethyl)imidazole-4-carbonyl]-L-alaninyl}amino-4-oxobutanoic acid]
2 | 8600 nM | C[C@H](NC(=O)c1cnc(Cc2ccccc2)[nH]1)C(=O)N[C@H](C=O)CC(=O)O [Compound 33c, (3S)3-[N-(2-Benzylimidazole-4-carbonyl)-L-alaninyl]amino-4-oxobutanoic acid]
3 | 4700 nM | C[C@H](NC(=O)c1ccc[nH]1)C(=O)N[C@H](C=O)CC(=O)O [Compound 36a, (3S)3-[N-(Pyrrole-2-carbonyl)-L-alaninyl]amino-4-oxobutanoic acid]

Row | Compound | Ki
4 | CC(=O)N[C@@H](Cc1ccc(O)cc1)C(=O)N[C@H](C(=O)N1Cc2ccccc2C[C@H]1C(=O)NC(C=O)CC(=O)O)C(C)C (stereo partly drawn) [L, N-[2-(N-Acetyl-tyrosinyl-valinyl)-(S)-1,2,3,4-tetrahydroisoquinoline-3-carbonyl]-3-amino-oxobutanoic acid] (Ac-YV[Tic][ξD]-aldehyde) | 14 nM

Same assay, conditions: Example 4 table

Row | Ki | Compound
5 | 800 nM | C[C@H](NC(=O)c1ccc(Cc2ccccc2)[nH]1)C(=O)N[C@H](C=O)CC(=O)O [Compound 36b, (3S)3-[N-(5-Benzylpyrrole-2-carbonyl)-L-alaninyl]amino-4-oxobutanoic acid]
6 | 2500 nM | O=C[C@H](CC(=O)O)NC(=O)[C@@H]1CCCN1C(=O)c1cc2ccccc2[nH]1 [Compound 39, (3S) 3-[1-(Indole-2-carbonyl)-L-prolinyl]amino-4-oxobutanoic acid]
7 | 20000 nM | Cc1c[nH]c2c(=O)n(CC(=O)N[C@H](C=O)CC(=O)O)cnc12 [Compound 43, (3S)-3-[2-(3,5-Dihydro-7-methyl-4-oxo-4H-pyrrolo[3,2-d]pyrimidin-3-yl)-1-oxo-ethylamino]-4-oxobutanoic acid]
8 | 970 nM | CC(C(=O)N[C@H](C=O)CC(=O)O)n1c(Cc2ccccc2)ccc(NC(=O)CCc2ccccc2)c1=O (stereo partly drawn) [Compound 54h, 3(S), N(2(R,S))3-(2-(6-Benzyl-1,2-dihydro-2-oxo-3-(3-phenylpropionyl)amino-1-pyridyl)propionylamino)-4-oxobutanoic acid]

Same assay, conditions: Example 6 table

Row | Ki | Compound
9 | 3.5 nM | C=CCO[C@@H]1C[C@@H](C(=O)N[C@H](C=O)CC(=O)O)N(C(=O)[C@@H](NC(=O)[C@H](Cc2ccc(O)cc2)NC(C)=O)C(C)C)C1 [Compound 85, N-(N-Acetyl-tyrosinyl-valinyl-(4 (R)-allyloxyprolinyl))-3(S)-amino-4-oxobutanoic acid] (Ac-YV[Hyp](Allyl)D-aldehyde)
10 | 175 nM | COc1cccc2nc(C(=O)[C@H](CC(=O)O)NC(=O)[C@@H]3C[C@H](Oc4ccccc4)CN3C(=O)[C@@H](NC(C)=O)C(C)C)oc12 [Compound 86, N-Acetyl-(S)-valinyl-(4-(S)-phenoxy)prolinyl-3(S)-amino-4-(7-methoxybenzoxazol-2-yl)-4-oxo-butanoic acid]
11 | 900 nM | O=C(O)C[C@H](NC(=O)Cn1c(Cc2ccccc2)ccc(NC(=O)CCc2ccccc2)c1=O)C(=O)CO [Compound 88, N-2-(6-Benzyl-1,2-dihydro-2-oxo-3-(3-phenylpropionyl)amino-1-pyridyl)acetyl-3(S)-amino-5-hydroxy-4-oxo-pentanoic acid]
12 | 200 nM | O=C[C@H](CC(=O)O)NC(=O)CN1C(=O)[C@@H](NC(=O)CCc2ccccc2)CN(C(=O)CCc2ccccc2)c2ccccc21 [Compound 106b]
13 | 430 nM | O=C(O)C[C@H](NC(=O)CN1C(=O)[C@@H](NC(=O)CCc2ccccc2)CN(C(=O)CCc2ccccc2)c2ccccc21)C(=O)c1ncc(-c2c(Cl)cccc2Cl)o1 [Compound 108c, 4-[5-(2,6-Dichlorophenyl)oxazol-2-yl]-4-oxo-3(S)-{2-[2-oxo-5-(3-phenylpropionyl)-3(S)-(3-phenylpropionylamino)-2,3,4,5-tetrahydrobenzo[b][1,4]diazepin-1-yl]-acetylamino}butyric acid]
14 | 4300 nM | O=CC(CC(=O)O)NC(=O)CN1C(=O)C(NC(=O)OCc2ccccc2)CN(Cc2ccccc2)C(=O)C1Cc1ccccc1 (stereo not drawn) [Compound 121, 3-{2-[2,4-Dibenzyl-3,7-dioxo-6-(N-benzyloxycarbonylamino)-[1,4]diazepan-1-yl]-acetylamino}-4-oxo-butyric acid]

Row | Compound | Ki
15 | CC(=O)N[C@@H](Cc1ccc(O)cc1)C(=O)N[C@H](C(=O)N[C@@H](C)C(=O)N[C@@H](CC(=O)O)C(=O)COCc1ccccc1Cl)C(C)C [Compound 89, N-Acetyl-(S)-tyrosinyl-(S)-valinyl-(S)-alaninyl-3(S)-amino-5-(2-chlorobenzyloxy)-4-oxo-pentanoic acid] | 18 nM

Each compound was assayed on mature IL-1β, Human Peripheral Blood Mononuclear Cells (PBMC) (assay: Cell assay: IL-1β assay with human PBMC or enriched adherent mononuclear cells). Settings: Example 6 table; LPS-stimulated cells, mature IL-1β by ELISA.
Assay type: cell-based
Excerpt: IL-1β Assay with a Mixed Population of Human Peripheral Blood Mononuclear Cells (PBMC) or Enriched Adherent Mononuclear Cells
Processing of pre-IL-1β by ICE can be measured in cell culture using a variety of cell sources. Human PBMC obtained from healthy donors provides a mixed population of lymphocyte subtypes and mononuclear cells that produce a spectrum of interleukins and cytokines in response to many classes of physiological stimulators. Adherent mononuclear cells from PBMC provides an enriched source of normal monocytes for selective studies of cytokine production by activated cells.
An initial dilution series of test compound in DMSO or ethanol is prepared, with a subsequent dilution into RPMI-10% FBS media (containing 2 mM L-glutamine, 10 mM HEPES, 50 U and 50 ug/ml pen/strep) respectively to yield drugs at 4× the final test concentration containing 0.4% DMSO or 0.4% ethanol. The final concentration of DMSO is 0.1% for all drug dilutions. A concentration titration which brackets the apparent Ki for a test compound determined in an ICE inhibition assay is generally used for the primary compound screen.
We generally test 5-6 compound dilutions and have performed the cellular component of the assay in duplicate, with duplicate ELISA determinations on each cell culture supernatant.
Buffy coat cells isolated from one pint human blood (yielding 40-45 ml final volume plasma plus cells) are diluted with media to 80 ml and LeukoPREP separation tubes (Becton Dickinson) are each overlaid with 10 ml of cell suspension. After 15 min centrifugation at 1500-1800×g, the plasma/media layer is aspirated and then the mononuclear cell layer is collected with a Pasteur pipette and transferred to a 15 ml conical centrifuge tube (Corning). Media is added to bring the volume to 15 ml, gently mix the cells by inversion and centrifuge at 300×g for 15 min. Resuspend the PBMC pellet in a small volume of media, count cells and adjust to 6×10^6 cells/ml.
For the cellular assay, add 1.0 ml of the cell suspension to each well of a 24-well flat bottom tissue culture plate (Corning), 0.5 ml test compound dilution and 0.5 ml LPS solution (Sigma #L-3012; 20 ng/ml solution prepared in complete RPMI media; final LPS concentration 5 ng/ml). The 0.5 ml additions of test compound and LPS are usually sufficient to mix the contents of the wells. Three control mixtures are run per experiment, with either LPS alone, solvent vehicle control, and/or additional media to adjust the final culture volume to 2.0 ml. The cell cultures are incubated for 16-18 hr at 37° C. in the presence of 5% CO2.
At the end of the incubation period, cells are harvested and transferred to 15 ml conical centrifuge tubes. After centrifugation for 10 min at 200×g, supernatants are harvested and transferred to 1.5 ml Eppendorf tubes. It may be noted that the cell pellet may be utilized for a biochemical evaluation of pre-IL-1β and/or mature IL-1β content in cytosol extracts by western blotting or ELISA with pre-IL-1β specific antisera.
PBMC are isolated and prepared as described above. Media (1.0 ml) is first added to wells followed by 0.5 ml of the PBMC suspension. After a one hour incubation, plates are gently shaken and nonadherent cells aspirated from each well. Wells are then gently washed three times with 1.0 ml of media and final resuspended in 1.0 ml media. The enrichment for adherent cells generally yields 2.5-3.0×10^5 cells per well. […]

Row | Compound | IC50
16 | COc1cccc2nc(C(=O)[C@H](CC(=O)O)NC(=O)[C@@H]3C[C@H](Oc4ccccc4)CN3C(=O)[C@@H](NC(C)=O)C(C)C)oc12 [Compound 86, N-Acetyl-(S)-valinyl-(4-(S)-phenoxy)prolinyl-3(S)-amino-4-(7-methoxybenzoxazol-2-yl)-4-oxo-butanoic acid] | 4000 nM

Same assay, conditions: Homo sapiens, PBMC; Example 2 table; LPS-stimulated cells, mature IL-1β by ELISA

Row | Compound | IC50
17 | CC(=O)N[C@@H](Cc1ccc(O)cc1)C(=O)N[C@H](C(=O)N1CC(Oc2ccccc2)C[C@H]1C(=O)NC(C=O)CC(=O)O)C(C)C (stereo partly drawn) [I, N-(N-Acetyl-tyrosinyl-valinyl-(4-phenoxyprolinyl))-3-amino-4-oxobutanoicacid] | 2600 nM
18 | CC(=O)N[C@@H](Cc1ccc(O)cc1)C(=O)N[C@H](C(=O)N1CC(O)C[C@H]1C(=O)NC(C=O)CC(=O)O)C(C)C (stereo partly drawn) [J, N-[N-Acetyl-tyrosinyl-valinyl-(4-hydroxyprolinyl)]-3-amino-4-oxobutanoicacid] | 5000 to 7000 nM
